# Experimental data as given in patent US20040185566A1, “Polypeptides toxic to nematodes and methods of use” (priority 2003, published 2004).
# Like-named read-outs stand apart in the source and are kept apart here. Where a SMILES comes first, the peptide text is derived from it. [ ]: non-standard residue; d: D form. The star is where a group is joined. Sta = CC(C)C[C@H](N)[C@@H](O)CC(=O)O; Isovaleryl = CC(C)CC(=O)*
# Biological target: SMP #1 (Serratia marcescens, UniProt P23694, N428Q/P266L)
# Type: biochemical, S. marcescens NRRL B-23112
structure (smiles),measurement,setting,value
CC(C)CC(=O)N[C@H](C(=O)N[C@H](C(=O)N[C@@H](CC(C)C)[C@@H](O)CC(=O)N[C@@H](C)C(=O)N[C@@H](CC(C)C)[C@@H](O)CC(=O)O)C(C)C)C(C)C [pepstatin] (Isovaleryl-VV[Sta]A[Sta]-OH),inhibition of SMP #1 proteolytic activity,pepstatin 4 μg/ml,not inhibited
CC(C)C[C@H](NP(=O)(O)O[C@@H]1O[C@@H](C)[C@H](O)[C@@H](O)[C@H]1O)C(=O)N[C@@H](Cc1c[nH]c2ccccc12)C(=O)O [phosphoramidon],inhibition of SMP #1 proteolytic activity,phosphoramidon 660 μ/ml,not inhibited
CC(C)C[C@H](NC(=O)[C@@H](NC(=O)N[C@@H](Cc1ccccc1)C(=O)O)[C@@H]1CCN=C(N)N1)C(=O)N[C@H](C=O)Cc1ccccc1 [chymostatin],inhibition of SMP #1 proteolytic activity,chymostatin 50 μg/ml,not inhibited
O=S(=O)(F)Cc1ccccc1 [phenylmethylsulfonyl fluoride],inhibition of SMP #1 proteolytic activity,phenylmethylsulfonyl fluoride 400 μ/ml,not inhibited
CC(=O)N[C@@H](CC(C)C)C(=O)N[C@@H](CC(C)C)C(=O)N[C@H](C=O)CCCNC(=N)N [leupeptin],inhibition of SMP #1 proteolytic activity,leupeptin 4 μg/ml,not inhibited
CC(C)C[C@H](NC(=O)[C@@H](O)[C@H](N)Cc1ccccc1)C(=O)O [bestatin],inhibition of SMP #1 proteolytic activity,bestatin 80 μg/ml,not inhibited
